From patent US9265736B2, “Treatment of cardiovascular disease and thrombosis” (THE CLEVELAND CLINIC FOUNDATION, priority 2011, dated 2016)
“Also recorded” adds a separate entry of the source.

Key:
peritoneal macrophages [1] = test: Macrophage cholesterol accumulation in mice on supplemented chow (Example 1); assay type: in vivo, C57BL/6J.Apoe−/− mice; settings: normal chow supplemented with choline (1.0%), TMAO (0.12%) or DMB (1.0%) vs normal chow
Procedure: Male C57BL/6J.Apoe−/− mice (15 week old) were placed on normal chow (control) alone or supplemented in the presence of either choline (1.0%), TMAO (0.12%), or DMB (1.0%). Peritoneal macrophages were recovered from the indicated number of mice at 20 weeks of age and cellular cholesterol content was quantified by stable isotope dilution GC/MS, and normalized to DNA content. (b) Schematic illustration of overall pathway.
(§1) Experiments were conducted during development of embodiments of the present invention to examine the structural specificity of phaophatidylcholine metabolites in promoting a pro-atherogenic macrophage phenotype as monitored by endogenous foam cell formation. C57BL/6J.Apoe−/− mice at time of weaning were placed on either normal chow diet (control) or normal chow supplemented with either choline, TMAO or the choline analog DMB, where the quaternary amine nitrogen of choline is replaced with a carbon (SEE FIG. 2, right). Thus, DMB is structurally identical to choline except there is no C—N bond for potential cleavage and TMA formation by gut flora.

[2] = Plasma TMAO in mice on supplemented chow (Example 1); assay type: in vivo, C57BL/6J.Apoe−/− mice; settings: normal chow supplemented with choline, TMAO or DMB vs normal chow
Procedure: as §1

platelets = test: Ex vivo platelet aggregation triggered by ADP (Example 7); assay type: in vivo, mice
Procedure: In this example, mice were placed on either normal chow diet at time of weaning, or a high choline diet. After several weeks, whole blood was removed, and platelets isolated. The ability of a submaximal agonist of platelets, ADP, to trigger platelet aggregation was then determined. In parallel, plasma levels of TMAO were determined by established stable isotope dilution LC/MS/MS analyses. […] This is a clear signal of a pro-thrombotic phenotype in the mice on a high choline diet. In a similar study, the mice on the high choline were also placed on a cocktail of broad spectrum antibiotics (described above and in Wang et al., Nature 2011, April, 472(7341):57-63, incorporated by reference it its entirety for all purposes) to suppress intestinal microflora, and reduce plasma TMAO levels. […] Such drugs (e.g., DMB or antibiotics) are attractive since they should not induce excess bleeding (e.g., like commercial anti-thrombotic drugs like clopidogrel or Warfarin). That is, TMAO only accentuates platelet function, and reducing TMAO levels (like with DMB, antibiotic, or some other drug or approach, be it functional food, probiotic, or prebiotic) would decrease in vivo thrombosis, but not reduce below “normal” function, and thus not increase bleeding risk. […]

ApoE−/− mice = test: Carotid artery in vivo thrombosis rate by vital microscopy, ApoE−/− mice; settings: diet high in choline or supplemented with TMAO, 3 weeks
Procedure: In this example, carotid artery in vivo thrombosis rates were determined using vital microscopy on the indicated groups of mice in FIG. 13. Mice were on the indicated diets +/− ABS for 3 weeks.
These studies extend to in vivo studies what was seen before with ex vivo platelet aggregation studies from mice on the various indicated diets. […] A shorter time indicates faster platelet aggregation (enhanced in vivo thrombosis).

wild-type mice = test: Carotid artery in vivo thrombosis rate by vital microscopy, wild-type mice
Procedure: This example repeats the study immediately above, excepts uses wild-type mice. The results are shown FIG. 14.
Carotid artery in vivo thrombosis rates were determined using vital microscopy on the indicated groups of mice shown in FIG. 15. Mice were on the indicated diets +/− ABS or DMB for 3 weeks.

[3] = system: C57BL/6J.Apoe−/− male mice; test: Aortic root lesion / atherosclerotic plaque, oil red O staining (Example 2); assay type: in vivo
Source text: C57BL/6J.Apoe−/− male mice at the time of weaning (4 weeks) were placed on chow diet supplemented with 1.3% choline, 1.3% DMB, both, or neither. Aortic root section was stained with oil red 0/hematoxin. The red oil staining area inside the aorta indicates lesion plaque (SEE FIGS. 3 and 4).

[4] = Plasma lipoprotein profile (Example 3); assay type: in vivo, mice; settings: 1.3% DMB added to mouse diet
Procedure: Experiments were conducted during development of embodiments of the present invention to compare plasma levels of (1) cholesterol, (2) triglyceride, low density lipoprotein-cholesterol, and HDL cholesterol in mice fed chow, or chow supplemented with 1.3% choline, 1.3% DMB, or both (SEE FIG. 5).

Peritoneal macrophages [5] = test: Cholesterol accumulation and foam cell formation, oil red O staining of peritoneal macrophages (Example 4); assay type: in vivo, C57BL/6J.Apoe−/− male mice; settings: chow with 1.3% choline and 1.3% DMB
Procedure: Experiments were conducted during development of embodiments of the present invention to examine the effect of addition of DMB on cholesterol accumulation and foam cell formation. C57BL/6J.Apoe−/− male mice at the time of weaning (4 weeks) were placed on chow diet supplemented with 1.3% choline, 1.3% DMB, both, or neither. Peritoneal macrophages were collected, fixed in 4% paraformaldehyde and stained with oil red 0/hematoxin. Addition of DMB reversed the high choline diet induced cholesterol accumulation and foam cell formation (SEE FIG. 6).

[6] = system: peritoneal mouse macrophages; test: Total cholesterol in peritoneal macrophages by stable isotope dilution LC/MS/MS (Example 5); assay type: in vivo, C57BL/6J.Apoe−/− male mice; settings: chow with 1.3% choline and 1.3% DMB
Procedure: Experiments were conducted during development of embodiments of the present invention to determine the effect of DMB on total cholesterol level in peritoneal mouse macrophages (SEE FIG. 7). C57BL/6J.Apoe−/− male mice at the time of weaning (4 weeks) were placed on chow diet supplemented with 1.3% choline, 1.3% DMB, both, or neither. The total cholesterol of cells was quantified by stable isotope dilution LC/MS/MS. Cells number was quantified by protein content in cell lysates.

intestinal microflora = test: Intestinal microflora-catalyzed generation of trimethylamine from choline, cecum homogenate (Example 6); assay type: biochemical; settings: D9-choline substrate, mouse cecum homogenate
Procedure: Experiments were conducted during development of embodiments of the present invention to examine the effect of DMB on intestinal microflora-catalyzed generation of trimethylamine from choline. Mouse celum was homogenized as a source of intestinal microflora. D9-choline was used as a substrate and the generation of […] was quantificed by stable isotope dilution LC/MS/MS.

[7] = Plasma TMA and TMAO by stable isotope dilution LC/MS/MS in mice on diets (Example 7); assay type: in vivo
Procedure: Six week old female mice were placed on the indicated diets +/− shown in FIG. 9, including Chow, CHOW+ antibiotics (ABS; which was 0.5 g/L vancomycin, 1 g/L neomycin sulfate, 1 g/L metronidazole, and 1 g/L ampicillin), TMAO, CH (chow supplemented with 1.0% wt/wt choline), CH and ABS, and CH+DMB. Mice were placed on these diets at 6 weeks of age and maintained on the diets for 3 weeks. Plasma was then recovered and both TMA and TMAO were determined by stable isotope dilution LC/MS/MS. Note that a diet rich in choline (similar to a Western diet) leads to increases in plasma TMA and TMAO levels.
In this example, mice were placed on either normal chow diet at time of weaning, or a high choline diet. After several weeks, whole blood was removed, and platelets isolated. The ability of a submaximal agonist of platelets, ADP, to trigger platelet aggregation was then determined. In parallel, plasma levels of TMAO were determined by established stable isotope dilution LC/MS/MS analyses. […] This is a clear signal of a pro-thrombotic phenotype in the mice on a high choline diet. In a similar study, the mice on the high choline were also placed on a cocktail of broad spectrum antibiotics (described above and in Wang et al., Nature 2011, April, 472(7341):57-63, incorporated by reference it its entirety for all purposes) to suppress intestinal microflora, and reduce plasma TMAO levels. […] Such drugs (e.g., DMB or antibiotics) are attractive since they should not induce excess bleeding (e.g., like commercial anti-thrombotic drugs like clopidogrel or Warfarin). That is, TMAO only accentuates platelet function, and reducing TMAO levels (like with DMB, antibiotic, or some other drug or approach, be it functional food, probiotic, or prebiotic) would decrease in vivo thrombosis, but not reduce below “normal” function, and thus not increase bleeding risk.

[8] = female mice, diets for 3 weeks, ABS or DMB added (high choline diet)

| SMILES | macrophage cholesterol content (peritoneal macrophages [1]) | plasma levels of TMAO [2] | platelet aggregation responses to ADP (platelets; diet supplemented with choline or TMAO vs normal chow) | in vivo thrombosis rates (time to cessation of blood flow in the carotid artery) (ApoE−/− mice) | in vivo thrombosis rates (wild-type mice; wild-type mice, absence of dyslipidemia) | reduction of aortic plaque formation ([3]; 1.3% DMB added to normal chow diet, from weaning (4 weeks)) [%] | increases in atherosclerotic plaque induced by the high choline diet ([3]; chow supplemented with 1.3% choline and 1.3% DMB) | plasma HDL cholesterol [4] | plasma low density lipoprotein-cholesterol [4] | plasma total cholesterol [4] | plasma triglyceride [4] | high choline diet induced cholesterol accumulation and foam cell formation (Peritoneal macrophages [5]) | high choline diet induced increase in macrophage cholesterol content [6] | gut flora-mediated catabolism of choline to TMA (intestinal microflora) | diet induced TMAO levels ([7]; WT thrombosis study, high choline diet plus ABS or DMB, 3 weeks) | plasma TMA formation [7, 8] | plasma TMAO formation [7, 8] | plasma TMAO formation ([7]; platelet study, high choline diet plus antibiotics or DMB) | choline diet induced platelet hyperresponsiveness (aggregation) (platelets; high choline diet plus antibiotics or DMB) | change in in vivo thrombosis rates seen on a high choline diet (wild-type mice; WT mice, high choline diet plus ABS or DMB, 3 weeks) |
| --- | --- | --- | --- | --- | --- | --- | --- | --- | --- | --- | --- | --- | --- | --- | --- | --- | --- | --- | --- | --- |
| C[N+](C)(C)[O-] [TMAO, trimethylamine N-oxide, reference compound] | increased | elevated | promotes enhanced platelet aggregation | promotes accelerated in vivo thrombosis rates | enhances in vivo thrombosis rates |  |  |  |  |  |  |  |  |  |  |  |  |  |  |  |
| CC(C)(C)CCO [DMB, 3,3-dimethyl-1-butanol] | no increased accumulation | no TMAO increase |  |  |  | ~90 | blocks the diet-induced enhanced atherosclerosis | increase | significant reductions | significant reductions | significant reductions | reversed | blocked | markedly inhibited | block TMAO levels | inhibits | inhibits | inhibits TMAO formation | markedly reduces platelet hyperresponsiveness; also recorded: blocks platelet hyper-responsiveness | block the reduction in in vivo thrombosis rates seen on a high choline diet |
